Experiments:
[1] = target: plasmin (Homo sapiens (Human), UniProt P00747); assay: Determination of enzyme selectivity, plasmin; format: biochemical; conditions: substrate at Km concentration
Experimental: (§1) Determination of Enzyme Selectivity
(§2) Human serine protease enzymes plasmin, thrombin, trypsin, Factor Xa and Factor XIIa were assayed for enzymatic activity using an appropriate fluorogenic substrate. Protease activity was measured by monitoring the accumulation of liberated fluorescence from the substrate over 5 minutes. The linear rate of fluorescence increase per minute was expressed as percentage (%) activity. The Km for the cleavage of each substrate was determined by standard transformation of the Michaelis-Menten equation.

[2] = target: Human KLK1 (Homo sapiens (Human), UniProt P06870); assay: Determination of the IC50 for KLK1 (fluorogenic substrate H-DVal-Leu-Arg-AFC); format: biochemical; conditions: 37° C.
Experimental: Determination of the IC50 for KLK1
(§3) Human KLK1 (Callbiochem) was incubated at 37° C. with the fluorogenic substrate H-DVal-Leu-Arg-AFC and various concentrations of the test compound. Residual enzyme activity (initial rate of reaction) was determined by measuring the change in […] at 410 nm and the IC50 value for the test compound was determined.

[3] = target: trypsin; assay: Determination of enzyme selectivity, trypsin; format: biochemical, human; conditions: substrate at Km concentration
Experimental: as §1, §2

[4] = target: Human plasma kallikrein (Homo sapiens (Human), UniProt P03952); assay: Determination of the IC50 for plasma kallikrein (fluorogenic substrate H-DPro-Phe-Arg-AFC); format: biochemical; conditions: 37° C., read-out: IC50 (human PKaI)
Experimental: Determination of the IC50 for Plasma Kallikrein
as §3, with “plasma kallikrein (Protogen)” for “KLK1 (Callbiochem)”, “H-DPro-Phe-Arg-AFC” for “H-DVal-Leu-Arg-AFC”

[5] = target: thrombin (Homo sapiens (Human), UniProt P00734); assay: Determination of enzyme selectivity, thrombin; format: biochemical; conditions: substrate at Km concentration
Experimental: as §1, §2

[6] = target: Factor XIIa (Homo sapiens (Human), UniProt P00748); assay: Determination of enzyme selectivity, Factor XIIa; format: biochemical; conditions: substrate at Km concentration
Experimental: as §1, §2

[7] = Pharmacokinetics following a single oral dose in male Sprague-Dawley rats; format: in vivo; conditions: rat, plasma
Experimental: Pharmacokinetic studies of the compounds in Table 16 were performed to assess the pharmacokinetics following a single oral dose in male Sprague-Dawley rats. […] Following dosing, blood samples were collected over a period of 24 hours. Sample times were 5, 15 and 30 minutes then 1, 2, 4, 6, 8, 12 and 24 hours. Following collection, blood samples were centrifuged and the plasma fraction analysed for concentration of test compound by LCMS.

[8] = in vivo; cited from earlier work
[9] = test system: diabetic rats; conditions: cited from earlier work
[10] = in vivo; cited from earlier work; remark: listed apart in the source

Chain of Human KLK1 (P06870 25-262): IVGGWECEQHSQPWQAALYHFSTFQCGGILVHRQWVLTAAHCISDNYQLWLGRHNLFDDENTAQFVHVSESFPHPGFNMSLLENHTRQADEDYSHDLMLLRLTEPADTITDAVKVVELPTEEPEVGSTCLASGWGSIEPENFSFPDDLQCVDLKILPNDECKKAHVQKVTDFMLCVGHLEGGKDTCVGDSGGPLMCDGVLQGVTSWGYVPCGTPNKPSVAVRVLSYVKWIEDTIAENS
Chain of Factor XIIa (P00748 373-615): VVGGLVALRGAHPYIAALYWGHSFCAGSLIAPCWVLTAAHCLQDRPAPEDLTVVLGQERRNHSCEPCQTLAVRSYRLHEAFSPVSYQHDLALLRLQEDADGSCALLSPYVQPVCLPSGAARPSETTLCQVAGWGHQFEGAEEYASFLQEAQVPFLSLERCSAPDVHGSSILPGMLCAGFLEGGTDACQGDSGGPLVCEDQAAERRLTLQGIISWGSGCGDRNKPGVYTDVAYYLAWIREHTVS
Chain of Human plasma kallikrein (P03952 391-638): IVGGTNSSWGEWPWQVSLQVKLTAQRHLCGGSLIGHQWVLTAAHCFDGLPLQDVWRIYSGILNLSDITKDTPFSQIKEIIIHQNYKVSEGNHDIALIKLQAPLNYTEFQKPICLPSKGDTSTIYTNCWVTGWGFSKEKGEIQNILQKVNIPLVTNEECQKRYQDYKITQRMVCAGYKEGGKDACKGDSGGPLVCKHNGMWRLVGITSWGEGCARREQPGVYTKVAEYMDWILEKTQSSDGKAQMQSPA
Chain of Human plasma kallikrein (P03952 20-390 partner): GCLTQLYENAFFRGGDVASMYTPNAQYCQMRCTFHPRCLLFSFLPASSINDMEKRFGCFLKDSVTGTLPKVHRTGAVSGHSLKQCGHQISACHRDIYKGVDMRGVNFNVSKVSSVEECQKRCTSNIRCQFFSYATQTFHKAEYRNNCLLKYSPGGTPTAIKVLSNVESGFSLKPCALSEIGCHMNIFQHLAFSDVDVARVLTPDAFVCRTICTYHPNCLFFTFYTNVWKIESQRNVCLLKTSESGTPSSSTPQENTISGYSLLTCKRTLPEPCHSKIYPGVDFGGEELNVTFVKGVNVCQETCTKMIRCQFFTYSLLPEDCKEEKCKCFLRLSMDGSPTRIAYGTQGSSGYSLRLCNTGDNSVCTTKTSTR
Chain of plasmin (P00747 581-810): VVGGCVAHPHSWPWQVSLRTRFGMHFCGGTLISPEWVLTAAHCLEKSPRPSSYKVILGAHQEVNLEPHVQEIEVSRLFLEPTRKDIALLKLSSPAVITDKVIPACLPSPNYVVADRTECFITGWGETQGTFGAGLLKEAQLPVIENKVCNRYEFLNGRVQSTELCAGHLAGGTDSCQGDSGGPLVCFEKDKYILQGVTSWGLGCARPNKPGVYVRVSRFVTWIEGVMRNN
Chain of plasmin (P00747 97-580 partner): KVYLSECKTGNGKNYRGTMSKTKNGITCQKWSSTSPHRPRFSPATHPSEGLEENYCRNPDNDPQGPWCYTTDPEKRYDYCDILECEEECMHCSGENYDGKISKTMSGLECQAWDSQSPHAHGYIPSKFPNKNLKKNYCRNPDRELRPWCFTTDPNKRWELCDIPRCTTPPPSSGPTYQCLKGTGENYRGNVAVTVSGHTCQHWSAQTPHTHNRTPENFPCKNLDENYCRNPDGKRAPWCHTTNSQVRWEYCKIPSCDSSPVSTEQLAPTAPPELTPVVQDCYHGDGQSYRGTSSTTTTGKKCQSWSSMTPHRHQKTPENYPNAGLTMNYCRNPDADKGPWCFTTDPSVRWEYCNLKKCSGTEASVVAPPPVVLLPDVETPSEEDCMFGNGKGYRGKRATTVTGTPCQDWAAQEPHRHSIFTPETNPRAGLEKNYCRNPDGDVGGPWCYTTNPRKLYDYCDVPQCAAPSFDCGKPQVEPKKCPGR

IC50 [2]	IC50 [4]	IC50 [6]	Cmax ([7]; single po dose 10 mg/kg)	Tmax ([7]; single po dose 10 mg/kg)	Compound	other results
8.86 µM	0.00189 µM	> 10000 nM	134 ng/mL	23 min	Cc1cnn(Cc2ccc(Cn3cc(C(=O)NCc4ccc5c(N)nccc5c4)c(C)n3)cc2)c1 [Example 11, 3-Methyl-1-[4-(4-methyl-pyrazol-1-ylmethyl)-benzyl]-1H-pyrazole-4-carboxylic acid (1-amino-isoquinolin-6-ylmethyl)-amide]	–
6.06 µM	0.00258 µM	> 10000 nM	155 ng/mL	30 min	Cc1cnn(Cc2ccc(Cn3cc(C(=O)NCc4ccc5c(N)nccc5c4)c(C4CC4)n3)cc2)c1 [Example 12, 3-Cyclopropyl-1-[4-(4-methyl-pyrazol-1-ylmethyl)-benzyl]-1H-pyrazole-4-carboxylic acid (1-amino-isoquinolin-6-ylmethyl)-amide]	–
> 40 µM	0.00216 µM	> 10000 nM	642 ng/mL	75 min	Cc1cnn(Cc2ccc(Cn3cc(C(=O)NCc4ccc5c(N)nccc5c4)c(C(F)(F)F)n3)cc2)c1 [Example 36, 1-[4-(4-Methyl-pyrazol-1-ylmethyl)-benzyl]-3-trifluoromethyl-1H-pyrazole-4-carboxylic acid (1-amino-isoquinolin-6-ylmethyl)-amide]	–
> 10 µM	0.118 µM	> 10000 nM	–	–	Cc1cnn(Cc2ccc(Cn3cc(C(=O)NCc4cnc5[nH]ccc5c4)c(C4CC4)n3)cc2)c1 [Example 120, 3-Cyclopropyl-1-[4-(4-methyl-pyrazol-1-ylmethyl)-benzyl]-1H-pyrazole-4-carboxylic acid (1H-pyrrolo[2,3-b]pyridin-5-ylmethyl)-amide]	–

The next lines start with the compound.

Compound	IC50 [2]	IC50 [4]	IC50 [6]	Cmax ([7]; single po dose 10 mg/kg)	Tmax ([7]; single po dose 10 mg/kg)	other results
Cc1cc(C(=O)NCc2ccc3c(N)nccc3c2)c(C)n1Cc1csc(-c2ccccc2)n1 [Example 1, 2,5-Dimethyl-1-(2-phenyl-thiazol-4-ylmethyl)-1H-pyrrole-3-carboxylic acid (1-amino-isoquinolin-6-ylmethyl)-amide]	> 10 µM	0.0547 µM	> 10000 nM	–	–	IC50 [1]: > 40000 nM; IC50 [3]: > 40000 nM; IC50 [5]: > 40000 nM
Cc1cnn(Cc2ccc(Cn3cc(C(=O)NCc4cnc5[nH]ccc5c4)cn3)cc2)c1 [Example 117, 1-[4-(4-Methyl-pyrazol-1-ylmethyl)-benzyl]-1H-pyrazole-4-carboxylic acid (1H-pyrrolo[2,3-b]pyridin-5-ylmethyl)-amide]	> 10 µM	0.078 µM	> 10000 nM	98 ng/mL	45 min	–
Ecallantide	–	–	–	–	–	anaphylactic reactions [8]: anaphylactic reactions
Nc1nccc2cc(CNC(=O)c3cn(Cc4ccc(N5CCCC5)nc4)nc3C(F)(F)F)ccc12 [Example 24, 1-(6-Pyrrolidin-1-yl-pyridin-3-ylmethyl)-3-trifluoromethyl-1H-pyrazole-4-carboxylic acid (1-amino-isoquinolin-6-ylmethyl)-amide]	> 4 µM	0.00966 µM	> 1000 nM	–	–	Cmax ([7]; single po dose 4 mg/kg): 97 ng/mL; Tmax ([7]; single po dose 4 mg/kg): 420 min
N=C(N)c1ccc(CNC(=O)c2cnn(Cc3ccccc3)c2)cc1 [ASP-440]	–	–	–	–	–	effect on retinal vascular permeability and retinal blood flow abnormalities [9]: ameliorated both retinal vascular permeability and retinal blood flow abnormalities; oral availability [10]: poor oral availability
O=C(NCc1cccc2[nH]ncc12)c1cn(Cc2ccc(Cn3ccccc3=O)cc2)nc1C(F)(F)F [Example 126, 1-[4-(2-Oxo-2H-pyridin-1-ylmethyl)-benzyl]-3-trifluoromethyl-1H-pyrazole-4-carboxylic acid (1H-indazol-4-ylmethyl)-amide]	> 10 µM	0.0229 µM	> 10000 nM	56 ng/mL	30 min	–
Cc1cc(C(=O)NCc2ccc3ccnc(N)c3c2)c(C)n1Cc1csc(-c2ccccc2)n1 [Example 2, 2,5-Dimethyl-1-(2-phenyl-thiazol-4-ylmethyl)-1H-pyrrole-3-carboxylic acid (1-amino-isoquinolin-7-ylmethyl)-amide]	> 10 µM	2.11 µM	> 10000 nM	–	–	–

— patent US9533987B2, “Heterocyclic derivates” (KALVISTA PHARMACEUTICALS LIMITED, priority 2013, dated 2017)
